Assay results: ChEMBL document CHEMBL1201862, “PubChem BioAssay data set” (2004)
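Dose response: 5 concentrations. Exposure: 48 h. Format: 96-well plates. Endpoint: linear interpolation; highest concentration if not reached. Here, GI50 denotes the concentration required for 50% inhibition of growth.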 The source made the active and inactive calls. Rule as the data show it: active = GI50 up to about 1.1 µM and inactive = higher.

Legend:
Experiment in all cases: growth of human tumour cells (NCI), 48 h
786-0 = test system: 786-0
RPMI-8226 = test system: RPMI-8226
SK-MEL-2 = test system: SK-MEL-2
UO-31 = test system: UO-31
IGROV-1 = test system: IGROV-1
K562 = test system: K562
ACHN = test system: ACHN
COLO 205 = test system: COLO 205
SF-295 = test system: SF-295
MDA-N = test system: MDA-N
MOLT-4 = test system: MOLT-4
A549 = test system: A549
SNB-19 = test system: SNB-19
OVCAR-4 = test system: OVCAR-4
CAKI-1 = test system: CAKI-1
HOP-92 = test system: HOP-92
EKVX = test system: EKVX
TK-10 = test system: TK-10
HT-29 = test system: HT-29
Malme-3M = test system: Malme-3M
U-251 = test system: U-251
SN12C = test system: SN12C
KM12 = test system: KM12
PC-3 = test system: PC-3
SW-620 = test system: SW-620
MCF7 = test system: MCF7
A498 = test system: A498
UACC-257 = test system: UACC-257
HOP-62 = test system: HOP-62
NCI/ADR-RES = test system: NCI/ADR-RES
BT-549 = test system: BT-549
NCI-H226 = test system: NCI-H226
M14 = test system: M14
MDA-MB-231 = test system: MDA-MB-231
NCI-H460 = test system: NCI-H460
HCT-116 = test system: HCT-116
HCC 2998 = test system: HCC 2998
UACC-62 = test system: UACC-62
SF-268 = test system: SF-268
DU-145 = test system: DU-145
OVCAR-5 = test system: OVCAR-5
SK-MEL-5 = test system: SK-MEL-5
SNB-75 = test system: SNB-75
SK-OV-3 = test system: SK-OV-3
SK-MEL-28 = test system: SK-MEL-28
NCI-H522 = test system: NCI-H522
MDA-MB-435 = test system: MDA-MB-435
HCT-15 = test system: HCT-15
NCI-H23 = test system: NCI-H23
CCRF-CEM = test system: CCRF-CEM
RXF 393 = test system: RXF 393
T47D = test system: T47D
OVCAR-3 = test system: OVCAR-3
SF-539 = test system: SF-539
LOX IMVI = test system: LOX IMVI
OVCAR-8 = test system: OVCAR-8
SR = test system: SR

Q: Which results are given for `Oc1ccc2ccccc2c1NCn1nc(CCCCCCCCc2nn(CNc3c(O)ccc4ccccc34)c(=S)o2)oc1=S`?
A: GI50 (786-0): > 100 µM (inactive); GI50 (RPMI-8226): 39.6 µM (inactive); GI50 (SK-MEL-2): > 100 µM (inactive); GI50 (UO-31): > 100 µM (inactive); GI50 (IGROV-1): 6.7 µM (inactive); GI50 (K562): > 100 µM (inactive); GI50 (ACHN): > 100 µM (inactive); GI50 (COLO 205): > 100 µM (inactive); GI50 (SF-295): > 100 µM (inactive); GI50 (MDA-N): 37.6 µM (inactive); GI50 (MOLT-4): > 100 µM (inactive); GI50 (A549): > 100 µM (inactive); GI50 (SNB-19): > 100 µM (inactive); GI50 (OVCAR-4): > 100 µM (inactive); GI50 (CAKI-1): > 100 µM (inactive); GI50 (HOP-92): > 100 µM (inactive); GI50 (EKVX): > 100 µM (inactive); GI50 (TK-10): > 100 µM (inactive); GI50 (HT-29): 25.5 µM (inactive); GI50 (Malme-3M): > 100 µM (inactive); GI50 (U-251): > 100 µM (inactive); GI50 (SN12C): > 100 µM (inactive); GI50 (KM12): 28.9 µM (inactive); GI50 (PC-3): > 100 µM (inactive); GI50 (SW-620): > 100 µM (inactive); GI50 (MCF7): > 100 µM (inactive); GI50 (A498): > 100 µM (inactive); GI50 (UACC-257): > 100 µM (inactive); GI50 (HOP-62): > 100 µM (inactive); GI50 (NCI/ADR-RES): > 100 µM (inactive); GI50 (BT-549): > 100 µM (inactive); GI50 (NCI-H226): > 100 µM (inactive); GI50 (M14): 44.8 µM (inactive); GI50 (MDA-MB-231): > 100 µM (inactive); GI50 (NCI-H460): > 100 µM (inactive); GI50 (HCT-116): 6.49 µM (inactive); GI50 (HCC 2998): > 100 µM (inactive); GI50 (UACC-62): > 100 µM (inactive); GI50 (SF-268): > 100 µM (inactive); GI50 (DU-145): > 100 µM (inactive); GI50 (OVCAR-5): > 100 µM (inactive); GI50 (SK-MEL-5): 44.5 µM (inactive); GI50 (SNB-75): > 100 µM (inactive); GI50 (SK-OV-3): > 100 µM (inactive); GI50 (SK-MEL-28): > 100 µM (inactive); GI50 (NCI-H522): 35.1 µM (inactive); GI50 (MDA-MB-435): 38.7 µM (inactive); GI50 (HCT-15): 43.1 µM; GI50 (NCI-H23): > 100 µM (inactive)

Q: How did the GI50 (786-0) turn out when `C/C(=C\c1ccccc1)C(=O)NCc1ccc(C(=O)NCCc2c[nH]c3ccccc23)cc1` was run?
A: 76 µM (inactive)

Q: What about the GI50 (RPMI-8226) of the same compound?
A: > 100 µM (inactive)

Q: And the GI50 (SK-MEL-2)?
A: > 100 µM (inactive)

Q: What about the GI50 (UO-31) of the same compound?
A: 51.6 µM (inactive)

Q: And the GI50 (IGROV-1)?
A: > 100 µM (inactive)

Q: And the GI50 (K562)?
A: > 100 µM (inactive)

Q: What about the GI50 (CCRF-CEM) of the same compound?
A: 2.39 µM (inactive)

Q: And the GI50 (ACHN)?
A: 38.1 µM (inactive)

Q: And the GI50 (COLO 205)?
A: 37.6 µM (inactive)

Q: And the GI50 (RXF 393)?
A: > 100 µM (inactive)

Q: And the GI50 (SF-295)?
A: > 100 µM (inactive)

Q: What about the GI50 (MDA-N) of the same compound?
A: > 100 µM (inactive)

Q: What about the GI50 (MOLT-4) of the same compound?
A: 60.7 µM (inactive)

Q: And the GI50 (A549)?
A: > 100 µM (inactive)

Q: And the GI50 (SNB-19)?
A: > 100 µM (inactive)

Q: What about the GI50 (OVCAR-4) of the same compound?
A: 86.5 µM (inactive)

Q: And the GI50 (CAKI-1)?
A: > 100 µM (inactive)

Q: And the GI50 (HOP-92)?
A: > 100 µM (inactive)

Q: What about the GI50 (T47D) of the same compound?
A: > 100 µM (inactive)

Q: What about the GI50 (EKVX) of the same compound?
A: 48.9 µM (inactive)

Q: And the GI50 (TK-10)?
A: 16.4 µM (inactive)

Q: What about the GI50 (HT-29) of the same compound?
A: > 100 µM (inactive)

Q: What about the GI50 (Malme-3M) of the same compound?
A: > 100 µM (inactive)

Q: What about the GI50 (U-251) of the same compound?
A: > 100 µM (inactive)

Q: And the GI50 (SN12C)?
A: > 100 µM (inactive)

Q: What about the GI50 (KM12) of the same compound?
A: 33.2 µM (inactive)

Q: And the GI50 (PC-3)?
A: 54.6 µM (inactive)

Q: What about the GI50 (SW-620) of the same compound?
A: > 100 µM (inactive)

Q: And the GI50 (MCF7)?
A: 24.3 µM (inactive)

Q: What about the GI50 (A498) of the same compound?
A: 22 µM (inactive)

Q: What about the GI50 (OVCAR-3) of the same compound?
A: 42 µM (inactive)

Q: What about the GI50 (UACC-257) of the same compound?
A: 13.6 µM (inactive)

Q: And the GI50 (HOP-62)?
A: 82 µM (inactive)

Q: And the GI50 (NCI/ADR-RES)?
A: > 100 µM (inactive)

Q: What about the GI50 (BT-549) of the same compound?
A: > 100 µM (inactive)

Q: What about the GI50 (NCI-H226) of the same compound?
A: > 100 µM (inactive)

Q: And the GI50 (M14)?
A: > 100 µM (inactive)

Q: And the GI50 (MDA-MB-231)?
A: > 100 µM (inactive)

Q: What about the GI50 (NCI-H460) of the same compound?
A: 25.9 µM (inactive)

Q: And the GI50 (SF-539)?
A: > 100 µM (inactive)

Q: And the GI50 (HCT-116)?
A: 58.3 µM (inactive)

Q: What about the GI50 (HCC 2998) of the same compound?
A: 16 µM (inactive)

Q: And the GI50 (UACC-62)?
A: 14 µM (inactive)

Q: What about the GI50 (LOX IMVI) of the same compound?
A: 61.1 µM (inactive)

Q: And the GI50 (SF-268)?
A: > 100 µM (inactive)

Q: And the GI50 (DU-145)?
A: > 100 µM (inactive)

Q: What about the GI50 (OVCAR-5) of the same compound?
A: > 100 µM (inactive)

Q: What about the GI50 (OVCAR-8) of the same compound?
A: > 100 µM (inactive)

Q: And the GI50 (SK-MEL-5)?
A: 50.5 µM (inactive)

Q: What about the GI50 (SNB-75) of the same compound?
A: > 100 µM (inactive)

Q: What about the GI50 (SK-OV-3) of the same compound?
A: > 100 µM (inactive)

Q: What about the GI50 (SK-MEL-28) of the same compound?
A: > 100 µM (inactive)

Q: What about the GI50 (NCI-H522) of the same compound?
A: 69 µM (inactive)

Q: And the GI50 (SR)?
A: > 100 µM (inactive)

Q: What about the GI50 (MDA-MB-435) of the same compound?
A: 78 µM (inactive)

Q: And the GI50 (HCT-15)?
A: > 100 µM

Q: What about the GI50 (NCI-H23) of the same compound?
A: 80.4 µM (inactive)
